Experimental data taken from US12606795B2 (Thankcome Biological Science and Technology (SuZhou) Co., …, priority 2023, dated 2026).

Legend:
[1] = Cell surface hydrophobicity (bacterial adherence to hydrocarbon, xylene); format: physicochemical; conditions: at 60 min
Description: Based on the ability of bacteria to adhere to hydrocarbons, the cell surface hydrophobicity of strain AKK PROBIO was measured. A test of bacterial adherence to hydrocarbon (BATH) was conducted using xylene, and some modifications were made. Specifically, the strains were cultured overnight in a BHI medium at 37° C. Cells were collected by centrifugation (4° C.; 8000 rpm; 10 min), washed twice, and resuspended in a phosphate buffer (PBS, pH 7), and absorbance (OD600 nm) was adjusted to 0.5 to normalize bacteria number. Then, an equal volume of xylene was added and vortexed for 5 min to fully mix a two-phase system. After the incubation at room temperature for 15, 30, and 60 min, an aqueous phase was carefully removed, and its absorbance at 600 nm was measured using a spectrophotometer. The affinity (hydrophobicity) for the hydrocarbons was calculated using the following formula:
[formula] • where P0 and P1 are absorbance values before and after extraction with the hydrocarbons, respectively.

SPF Kunming mice = test: Acute toxicity in mice; format: in vivo; conditions: for Granulocyte number GR# / Granulocyte percentage GR % / Hematocrit HCT / Hemoglobin HGB / Lymphocyte number Lym# / Lymphocyte percentage Lym % / Mean corpuscular hemoglobin MCH / Mean corpuscular volume MCV / Mean corpuscular-hemoglobin concentration MCHC / Mean platelet volume MPV / Middle cell number Mid# / Middle cell percentage Mid % / Platelet distribution PDW / Platelet-large cell count PLCC / Platelet-large cell ratio PLCR / Plateletcrit PCT / Platelets PLT / Red blood cell distribution width coefficient of variation RDW_CV / Red blood cell distribution width standard deviation RDW_SD / Red blood cells RBC / While blood cells WBC: acute toxicity
Description: The groups were recorded as a sodium chloride solution group, a low dosage group, a medium dosage group and a high dosage group, respectively, and the general conditions and the body weight were observed per day within 7 to 10 d. At the end of the experimental period, blood samples were collected for hematological and serum biochemical analysis (refer to Embodiment 4). A histopathological examination of major organs and tissue was performed on all animals in each group (refer to Embodiment 4).

[2] = test system: DSS-induced ulcerative colitis mice; test: DSS-induced ulcerative colitis in mice; format: in vivo, C57BL/6J mice; conditions: 5.0% DSS mice, 1×10^10 CFU/mL intragastric daily 9 d
Description: Animals and their management: male C57BL/6J mice (6 to 10-week-old, weighing 18 to 24 g) purchased from the Beijing Huafukang Biotechnology Co., Ltd, where procedures involving mice were carried out in strict accordance with international animal care standards, and approved by the Animal Protection Institute and Management Committee of Jilin Agricultural University. Adaptive culture was performed for 1 week, and mice were cultured at room temperature (25° C.±1° C.) in a cycle of 12 h of light and 12 h of darkness.
Animal experimental design: 5.0% (wt/vol) DSS (molecular weight: 36,000 to 50,000) was added to drinking water of the mice for 3 consecutive days to induce colitis. Beginning on the first day of taking DSS, the A. muciniphila (viable or inactivated, with a concentration of 1×10^10 CFU/mL) was intragastrically administered per day for 9 consecutive days. C57BL/6J mice were randomly divided into four groups: a control group, a DSS model group (DSS), an AKK PRO group, and an inactivated AKK PRO group (mAKK PRO). Physiological indicators of the mice in each group were observed.
Physiological indicators: The physiological indicators are used for assessing health statuses of the mice. The individual scores of the mice were combined to generate disease activity indices (DAI), including changes of body weight, food intake, and fecal consistency. After the mice were euthanized, the colon length and the liver weight of each mouse in each group were measured, and an immune organ index was calculated according to the following formula: liver index=liver weight (mg)/body weight (g) [Wang, X., et al., Troxerutin Improves Dextran Sulfate Sodium-Induced Ulcerative Colitis in Mice. J Agric Food Chem, 2021. 69 (9): p. 2729-2744.].

[3] = Tolerance to artificial intestinal juice; format: physicochemical; conditions: artificial intestinal juice pH 8.0, 37° C., at 240 min
Description: Gastric juice ([…], 2 g/L NaCl, and 3.2 g/L pepsin, pH 2.0) and intestinal juice (6.8 g/L KH2 PO4, 10 g/L trypsin, and 0.1M NaOH, pH 8.0) were prepared, and then the gastric juice and the intestinal juice were filtered and sterilized using 0.22 μm sterile filter. […] The bacterial cells were washed twice with sterile saline and resuspended in 5 mL saline. A bacterial solution was mixed well with the sterile artificial gastric or intestinal juice in 1:1 (v/v). The mixture was shaken well, and then was placed in a constant-temperature incubator and culture was performed at 37° C.

[4] = high dosage 5×10^11 CFU/d intragastric for 1 d
[5] = low dosage 1×10^9 CFU/d intragastric for 1 d
[6] = medium dosage 5×10^10 CFU/d intragastric for 1 d

## Akkermansia muciniphila [AKK PROBIO]
[1]
  hydrophobicity: ≥ 30%
SPF Kunming mice; acute
  pathological sections of livers and kidneys: no significant pathological injury
SPF Kunming mice; acute intragastric administration, high, medium and low dosage (5×10^11, 5×10^10, 1×10^9 CFU/d)
  death: no death occurs
SPF Kunming mice; [4]
  Granulocyte number GR#: 0 ± 0 10^9/L
  Granulocyte percentage GR %: 0 ± 0%
  Hematocrit HCT: 7.35 ± 2.76%
  Hemoglobin HGB: 110.00 g/L
  Lymphocyte number Lym#: 0.54 ± 0.37 10^9/L
  Lymphocyte percentage Lym %: 100 ± 0%
  Mean corpuscular hemoglobin MCH: 81.55 pg
  Mean corpuscular volume MCV: 52.60 fL
  Mean corpuscular-hemoglobin concentration MCHC: 1579.00 g/L
  Mean platelet volume MPV: 9.20 ± 0.71 fL
  Middle cell number Mid#: 0 ± 0 10^9/L
  Middle cell percentage Mid %: 0 ± 0%
  Platelet distribution PDW: 21.00%
  Platelet-large cell count PLCC: 218.50 ± 10^9/L
  Platelet-large cell ratio PLCR: 19.70%
  Plateletcrit PCT: 1.04 ± 0.40%
  Platelets PLT: 1112.50 ± 10^9/L
  Red blood cell distribution width coefficient of variation RDW_CV: 13.75%
  Red blood cell distribution width standard deviation RDW_SD: 92.55 fL
  Red blood cells RBC: 1.38 ± 0.35 10^12/L
  While blood cells WBC: 0.54 ± 0.37 10^9/L
SPF Kunming mice; [5]
  Granulocyte number GR#: 0.05 ± 10^9/L
  Granulocyte percentage GR %: 3.8%
  Hematocrit HCT: 11.70%
  Hemoglobin HGB: 87.50 g/L
  Lymphocyte number Lym#: 0.82 ± 10^9/L
  Lymphocyte percentage Lym %: 95.55%
  Mean corpuscular hemoglobin MCH: 45.35 pg
  Mean corpuscular volume MCV: 55.90 fL
  Mean corpuscular-hemoglobin concentration MCHC: 802.00 g/L
  Mean platelet volume MPV: 9.55 fL
  Middle cell number Mid#: 0.01 ± 10^9/L
  Middle cell percentage Mid %: 0.65%
  Platelet distribution PDW: 19.10%
  Platelet-large cell count PLCC: 273.50 ± 10^9/L
  Platelet-large cell ratio PLCR: 27.65%
  Plateletcrit PCT: 0.89%
  Platelets PLT: 921.00 ± 10^9/L
  Red blood cell distribution width coefficient of variation RDW_CV: 14.85%
  Red blood cell distribution width standard deviation RDW_SD: 76.40 fL
  Red blood cells RBC: 2.12 ± 10^12/L
  While blood cells WBC: 0.88 ± 10^9/L
SPF Kunming mice; [6]
  Granulocyte number GR#: 0.06 ± 10^9/L
  Granulocyte percentage GR %: 4.20 ± 5.94%
  Hematocrit HCT: 11.70%
  Hemoglobin HGB: 96.00 g/L
  Lymphocyte number Lym#: 0.99 ± 10^9/L
  Lymphocyte percentage Lym %: 95.20%
  Mean corpuscular hemoglobin MCH: 49.20 pg
  Mean corpuscular volume MCV: 53.05 fL
  Mean corpuscular-hemoglobin concentration MCHC: 892.00 g/L
  Mean platelet volume MPV: 9.15 ± 0.78 fL
  Middle cell number Mid#: 0.01 ± 10^9/L
  Middle cell percentage Mid %: 0.60%
  Platelet distribution PDW: 20.15%
  Platelet-large cell count PLCC: 158.50 ± 10^9/L
  Platelet-large cell ratio PLCR: 18.00%
  Plateletcrit PCT: 0.84 ± 0.54%
  Platelets PLT: 891.50 ± 10^9/L
  Red blood cell distribution width coefficient of variation RDW_CV: 13.05%
  Red blood cell distribution width standard deviation RDW_SD: 73.40 fL
  Red blood cells RBC: 2.28 ± 10^12/L
  While blood cells WBC: 1.06 ± 10^9/L
SPF Kunming mice; acute, heart, liver, spleen, kidneys, thymus, brain, testes, lungs, stomach, intestine, vs control group
  weight of major organs (organ indices): substantially no significant difference
SPF Kunming mice; acute, vs control group
  activity of glutamic oxalacetic transaminase (GOT) in both serum and liver: no significant difference
  activity of glutamic pyruvate transaminase (GPT) in both serum and liver: no significant difference
  concentration of blood urea nitrogen (BUN) in serum: no significant difference
  content of creatinine (GRE) in serum: no significant difference
  level of glucose (GLU) in both serum and liver: no significant difference
  level of the bile acid in both serum and liver: no significant difference
  level of the cholesterol in both serum and liver: no significant difference
  level of total protein (TP) in both serum and liver: no significant difference
SPF Kunming mice; acute, vs control mice
  level of the triglyceride in serum: no significant difference
SPF Kunming mice; acute, vs control saline group
  changes of blood glucose per day: no significant difference
  changes of body weight per day: no significant difference
  changes of food intake per day: no significant difference
  level of triglyceride in the liver: significantly lower
  various blood indicators: no significant difference
[2]; vs DSS group
  immune organ index (liver index): significantly decreased
[2]; vs DSS group, P<0.05
  colon length: significantly increased
[2]; vs model group
  DAI score: lower
  body weight reduced: less
  food intake reduced: less
[3]
  survival rate in intestinal juice: ≥ 80%
